Measurements as given in patent publication US20220194914A1, “METHODS AND SYSTEMS FOR PRODUCTION OF FURFURAL” (SHELL OIL COMPANY, priority 2020, published 2022).
Like-named read-outs stand apart in the source and are kept apart here.

Assays:
[1] = cited from earlier work; for Water solubility g/L (20° C.) / water solubility: 20° C.
[2] = octanol-water, cited from earlier work
[3] = Partitioning of components between the aqueous and non-aqueous phase of the biphasic solution (Example 4); assay type: physicochemical; conditions: aqueous pH 1 (H2SO4), calculated ionic strength 3.0 M (Na2SO4) / MN, 1:1 volume
Text: The non-aqueous phase solution contains MN, PBA, and furfural. The biphasic solution was mixed to allow adequate contact amongst the various components, and the biphasic solution was subsequently allowed to settle into the two phases: aqueous and non-aqueous.

**Q.** With CCCCCCC [heptane] as the molecule, how does the “Water solubility g/L (20° C.)” value ([1]; Table 2 solvents) read?
**A.** Its value is 0.003 g/L.

**Q.** What about the LogP ([2]; Table 2 solvents) of the same molecule?
**A.** The LogP was 4.47.

**Q.** For OB(O)c1cccc2ccccc12 [naphthalene-1-boronic acid], which “Water solubility g/L (20° C.)” value ([1]; Table 1 boronic acids) is on record?
**A.** The value was 0.3 g/L.

**Q.** Which LogP ([2]; Table 1 boronic acids) does the source give for CCc1ccc(B(O)O)cc1 [4-ethylphenyl boronic acid] here?
**A.** Its LogP is 2.58.

**Q.** For COc1ccccc1O [guaiacol], which “Water solubility g/L” value ([1]; 25° C., Table 2 solvents) is on record?
**A.** The value was 18.7 (25° C.) g/L.

**Q.** And the LogP ([2]; Table 2 solvents)?
**A.** Its LogP is 0.97.

**Q.** Which results are given for CCCCCCCCB(O)O [octylboronic acid]?
**A.** Water solubility g/L (20° C.) ([1]; Table 1 boronic acids): Insoluble; water solubility [1]: water-insoluble; LogP ([2]; Table 1 boronic acids): 3.56; LogP [2]: 3.56

**Q.** With c1ccc2occc2c1 [Benzofuran] as the molecule, how does the “Water solubility g/L (20° C.)” value ([1]; Table 2 solvents) read?
**A.** Its value is “insoluble”.

**Q.** And the LogP ([2]; Table 2 solvents)?
**A.** The LogP was 2.67.

**Q.** Which “molar concentration in Aqueous Phase” value [3] does the source give for Methylnaphtalene [MN] here?
**A.** Its value is 2 mM.

**Q.** What about the “molar concentration in Non-aqueous Phase” value [3] of the same molecule?
**A.** The value was 7.03M.

**Q.** For CC(C)OC(C)C [Diisopropyl ether], which “Water solubility g/L (20° C.)” value ([1]; Table 2 solvents) is on record?
**A.** The value was 1.7 g/L.

**Q.** What about the LogP ([2]; Table 2 solvents) of the same molecule?
**A.** Its LogP is 2.03.

**Q.** With O=S(=O)([O-])[O-].[Na+].[Na+] [Salt (based on 2Na), Na2SO4] as the molecule, how does the “mol % of the component in Aqueous Phase with respect to the biphasic solution” value [3] read?
**A.** The value was “(>99 mol %)”.

**Q.** And the “mol % of the component in Non-aqueous Phase with respect to the biphasic solution” value [3]?
**A.** Its value is “(0.2 mol %)”.

**Q.** And the “molar concentration in Aqueous Phase” value [3]?
**A.** Its value is 1M.

**Q.** And the “molar concentration in Non-aqueous Phase” value [3]?
**A.** Its value is 2 mM.

**Q.** What about the “mol % of the component in Aqueous Phase with respect to the biphasic solution” value ([3]; listed as Na2SO4) of the same molecule?
**A.** The value was “over 99 mol %”.

**Q.** What does the source list for OB(O)CCc1ccccc1 [Phenethyl boronic acid]?
**A.** Water solubility g/L (20° C.) ([1]; Table 1 boronic acids): 1.8 g/L; LogP ([2]; Table 1 boronic acids): 1.20

**Q.** With OB(O)c1ccc2ccccc2c1 [2-naphthylboronic acid] as the molecule, how does the “Water solubility g/L (20° C.)” value ([1]; Table 1 boronic acids) read?
**A.** Its value is 0.3 g/L.

**Q.** What about the water solubility [1] of the same molecule?
**A.** Its water solubility is 0.03 wt %.

**Q.** And the LogP ([2]; Table 1 boronic acids)?
**A.** Its LogP is 2.82.

**Q.** And the LogP [2]?
**A.** Its LogP is 2.82.

**Q.** For Cc1cccc(O)c1 [Cresol (m)], which LogP ([2]; Table 2 solvents) is on record?
**A.** The LogP was 1.94.

**Q.** What does the source list for CCCCCCCCO [1-octanol]?
**A.** Water solubility g/L (20° C.) ([1]; Table 2 solvents): 0.3 g/L; LogP ([2]; Table 2 solvents): 3.10

**Q.** For CCCCB(O)O [butylboronic acid], which “Water solubility g/L (20° C.)” value ([1]; Table 1 boronic acids) is on record?
**A.** The value was 25 g/L.

**Q.** And the LogP ([2]; Table 1 boronic acids)?
**A.** The LogP was 1.43.

**Q.** For Cc1ccccc1B(O)O [o-tolylboronic acid], which “Water solubility g/L (20° C.)” value ([1]; Table 1 boronic acids) is on record?
**A.** Its value is “Slightly”.

**Q.** What about the LogP ([2]; Table 1 boronic acids) of the same molecule?
**A.** Its LogP is 2.05.

**Q.** What does the source list for CCc1ccc(O)cc1 [4Et-phenol]?
**A.** Water solubility g/L (20° C.) ([1]; Table 2 solvents): 6.1 g/L; LogP ([2]; Table 2 solvents): 2.47

**Q.** What does the source list for Cc1cccc(B(O)O)c1 [m-tolylboronic acid]?
**A.** Water solubility g/L (20° C.) ([1]; Table 1 boronic acids): 25 g/L; LogP ([2]; Table 1 boronic acids): 2.05

**Q.** With Cc1cccc(C)c1O [2,6 xylenol] as the molecule, how does the LogP ([2]; Table 2 solvents) read?
**A.** Its LogP is 2.40.

**Q.** Which results are given for OB(O)c1ccccc1 [phenylboronic acid]?
**A.** molar concentration in Aqueous Phase [3]: 129 mM; molar concentration in Non-aqueous Phase [3]: 566 mM; Water solubility g/L (20° C.) ([1]; Table 1 boronic acids): 10 g/L; water solubility [1]: 1 wt %; LogP ([2]; Table 1 boronic acids): 1.59

**Q.** For O=Cc1ccco1 [Furfural], which “mol % of the component in Non-aqueous Phase with respect to the biphasic solution” value [3] is on record?
**A.** Its value is “(88 mol %)”.

**Q.** And the “molar concentration in Aqueous Phase” value [3]?
**A.** Its value is 46 mM.

**Q.** What about the “molar concentration in Non-aqueous Phase” value [3] of the same molecule?
**A.** Its value is 352 mM.

**Q.** And the “mol % of the component in Non-aqueous Phase with respect to the biphasic solution” value ([3]; listed as furfural)?
**A.** Its value is 88 mol %.

**Q.** What does the source list for CCc1ccccc1 [Ethylbenzene]?
**A.** Water solubility g/L (20° C.) ([1]; Table 2 solvents): 0.15 g/L; LogP ([2]; Table 2 solvents): 2.96

**Q.** With COc1ccccc1 [anisole] as the molecule, how does the “Water solubility g/L (20° C.)” value ([1]; Table 2 solvents) read?
**A.** The value was 1.5 g/L.

**Q.** With CC(C)(C)c1ccc(B(O)O)cc1 [4-tert-Butylphenyl boronic acid] as the molecule, how does the “Water solubility g/L (20° C.)” value ([1]; Table 1 boronic acids) read?
**A.** The value was “Insoluble”.

**Q.** And the LogP ([2]; Table 1 boronic acids)?
**A.** The LogP was 3.28.

**Q.** What does the source list for CC(C)CB(O)O [(2-methylpropyl) boronic acid]?
**A.** Water solubility g/L (20° C.) ([1]; Table 1 boronic acids): 33 g/L; LogP ([2]; Table 1 boronic acids): 0.6

**Q.** Which “Water solubility g/L (20° C.)” value ([1]; Table 1 boronic acids) does the source give for CCCCc1ccc(B(O)O)cc1 [4-butylphenyl boronic acid] here?
**A.** The value was “Insoluble”.

**Q.** What about the LogP ([2]; Table 1 boronic acids) of the same molecule?
**A.** The LogP was 3.64.

**Q.** What does the source list for OB(O)C1CCCCC1 [Cyclohexyl boronic acid]?
**A.** Water solubility g/L (20° C.) ([1]; Table 1 boronic acids): 25 g/L; LogP ([2]; Table 1 boronic acids): 1.90
